The target of data set [1] is T1, A disintegrin and metalloproteinase with thrombospondin motifs 4 (Homo sapiens, UniProt O75173).
T1 sequence (O75173 whole entry): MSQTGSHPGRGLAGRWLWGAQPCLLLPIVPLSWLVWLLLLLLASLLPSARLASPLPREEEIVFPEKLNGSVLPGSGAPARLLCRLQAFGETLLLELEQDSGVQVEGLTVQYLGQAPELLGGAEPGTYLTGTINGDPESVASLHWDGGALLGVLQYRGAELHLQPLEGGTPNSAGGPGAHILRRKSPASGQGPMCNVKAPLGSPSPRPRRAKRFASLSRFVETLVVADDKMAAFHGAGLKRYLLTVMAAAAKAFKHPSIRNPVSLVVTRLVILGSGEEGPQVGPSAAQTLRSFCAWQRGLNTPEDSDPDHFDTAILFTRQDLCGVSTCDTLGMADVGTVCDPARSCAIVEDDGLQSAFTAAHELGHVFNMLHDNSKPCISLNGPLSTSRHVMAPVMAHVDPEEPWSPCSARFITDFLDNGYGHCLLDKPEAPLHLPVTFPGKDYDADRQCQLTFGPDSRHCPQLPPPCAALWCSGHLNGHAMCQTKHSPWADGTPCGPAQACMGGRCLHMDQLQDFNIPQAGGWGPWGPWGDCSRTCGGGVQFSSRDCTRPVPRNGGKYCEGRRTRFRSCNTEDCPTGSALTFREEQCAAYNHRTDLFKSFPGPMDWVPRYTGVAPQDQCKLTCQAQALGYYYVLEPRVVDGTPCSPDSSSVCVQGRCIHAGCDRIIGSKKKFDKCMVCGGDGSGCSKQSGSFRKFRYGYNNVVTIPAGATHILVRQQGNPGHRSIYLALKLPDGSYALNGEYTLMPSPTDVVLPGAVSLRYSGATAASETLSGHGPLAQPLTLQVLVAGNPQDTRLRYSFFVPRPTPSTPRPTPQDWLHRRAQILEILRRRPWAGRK
The experiment in a line: Inhibition of aggrecanase-1.

A further data set has as its target Collagenase 3 (Homo sapiens, UniProt P45452). The experiment in a line: Inhibition of MMP13.
Data set [2] has as its target T2, A disintegrin and metalloproteinase with thrombospondin motifs 5 (Homo sapiens) (UniProt Q9UNA0).
T2 sequence (whole entry): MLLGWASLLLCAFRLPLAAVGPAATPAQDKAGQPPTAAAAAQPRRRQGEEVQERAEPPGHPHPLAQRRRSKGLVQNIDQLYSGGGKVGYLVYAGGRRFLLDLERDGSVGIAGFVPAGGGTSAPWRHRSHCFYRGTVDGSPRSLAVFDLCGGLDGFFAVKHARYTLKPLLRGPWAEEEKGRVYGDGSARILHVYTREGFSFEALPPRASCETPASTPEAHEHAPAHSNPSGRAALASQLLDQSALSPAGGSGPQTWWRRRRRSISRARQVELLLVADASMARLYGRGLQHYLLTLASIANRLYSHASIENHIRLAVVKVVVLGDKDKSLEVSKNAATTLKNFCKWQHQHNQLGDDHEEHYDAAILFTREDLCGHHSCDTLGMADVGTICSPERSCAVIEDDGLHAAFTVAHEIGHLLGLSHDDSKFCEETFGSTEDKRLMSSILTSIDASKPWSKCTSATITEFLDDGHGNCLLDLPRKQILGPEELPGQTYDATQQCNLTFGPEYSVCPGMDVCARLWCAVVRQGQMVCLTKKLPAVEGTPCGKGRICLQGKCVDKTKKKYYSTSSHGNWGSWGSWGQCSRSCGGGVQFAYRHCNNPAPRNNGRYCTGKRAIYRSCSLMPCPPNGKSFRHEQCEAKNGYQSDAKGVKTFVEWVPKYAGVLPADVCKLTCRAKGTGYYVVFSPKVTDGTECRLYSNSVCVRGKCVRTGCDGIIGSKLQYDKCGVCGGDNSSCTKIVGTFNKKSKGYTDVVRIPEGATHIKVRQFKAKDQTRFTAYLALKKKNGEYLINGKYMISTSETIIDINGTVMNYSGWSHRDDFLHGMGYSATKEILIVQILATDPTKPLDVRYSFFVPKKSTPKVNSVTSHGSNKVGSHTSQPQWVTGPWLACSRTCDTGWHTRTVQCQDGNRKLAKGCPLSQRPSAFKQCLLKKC
The experiment in a line: Inhibition of aggrecanase-2 at 200 uM.

Data set [3] addresses T3, A disintegrin and metalloproteinase with thrombospondin motifs 4 (Bos taurus) (UniProt Q9TT93).
T3 sequence (whole entry): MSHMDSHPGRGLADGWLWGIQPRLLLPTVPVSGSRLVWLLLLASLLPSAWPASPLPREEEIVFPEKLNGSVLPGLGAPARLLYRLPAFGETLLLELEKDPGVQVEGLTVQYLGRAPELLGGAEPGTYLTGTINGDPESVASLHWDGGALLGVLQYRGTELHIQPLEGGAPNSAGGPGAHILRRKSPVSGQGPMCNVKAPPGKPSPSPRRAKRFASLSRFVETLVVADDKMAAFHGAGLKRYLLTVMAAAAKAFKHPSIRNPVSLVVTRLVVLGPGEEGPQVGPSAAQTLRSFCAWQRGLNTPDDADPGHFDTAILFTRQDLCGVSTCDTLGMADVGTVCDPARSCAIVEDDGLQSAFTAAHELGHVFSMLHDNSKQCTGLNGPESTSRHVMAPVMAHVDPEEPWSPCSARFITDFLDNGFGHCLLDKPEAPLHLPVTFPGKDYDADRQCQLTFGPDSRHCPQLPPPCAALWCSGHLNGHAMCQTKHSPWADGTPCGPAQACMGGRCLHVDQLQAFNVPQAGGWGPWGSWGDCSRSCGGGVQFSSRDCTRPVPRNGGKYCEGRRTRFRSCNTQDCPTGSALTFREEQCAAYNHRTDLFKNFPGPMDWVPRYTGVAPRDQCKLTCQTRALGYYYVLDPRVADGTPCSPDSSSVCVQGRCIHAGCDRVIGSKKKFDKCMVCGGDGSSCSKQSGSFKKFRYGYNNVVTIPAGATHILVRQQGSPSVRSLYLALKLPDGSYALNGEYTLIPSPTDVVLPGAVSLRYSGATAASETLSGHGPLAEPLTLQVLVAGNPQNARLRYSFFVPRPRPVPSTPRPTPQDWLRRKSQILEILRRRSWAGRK
The experiment in a line: Inhibition of aggrecanase 1 in bovine cartilage explant assessed as inhibition of IL1-stimulated proteoglycan degradation at 10 ug/ml.

Data set [4] in a line: Solubility of the compound at pH 7.4. Type of data set: physicochemical. The conditions noted are these: buffer.
Data set [5] is described as follows: Half life in Sprague-Dawley rat. The class given is ADME, organism-based. As to conditions: in vivo.
The nature of data set [6]: Clearance in Sprague-Dawley rat. Type of data set: ADME, organism-based. The conditions noted are these: in vivo.
The nature of data set [7]: Bioavailability in Sprague-Dawley rat. The class given is ADME, organism-based. The conditions noted are these: in vivo.
The nature of data set [8]: Permeability across human Caco2 cells. Type of data set: ADME, cell-based. The conditions noted are these: Caco-2, read-out: permeability.
The target in data set [9] is T4, A disintegrin and metalloproteinase with thrombospondin motifs 5 (Homo sapiens, UniProt Q9UNA0).
T4 sequence (Q9UNA0 whole entry): T2 sequence (whole entry)
The experiment in a line: Inhibition of aggrecanase-2.

≈ marks a conversion by molar mass, not a printed value.

Usually IC50 stands for the concentration that gives 50% inhibition. Low values mean inhibition by little substance, high ones a need for much substance. Usually inhibition stands for the drop in the measured response relative to a control, in per cent. Turning to `CC(=O)NCc1ccc(-c2ccc(S(=O)(=O)N[C@@H](C(=O)O)C(C)C)cc2)cc1`, the IC50 in [1] was 420 nM; against Collagenase 3, 450 nM. In addition, the inhibition in [2] stood at 73%; in data set [3] it was 20%.
As a reminder, the solubility is the concentration that dissolves in the medium under given conditions. Low values mean little dissolved substance, high ones much dissolved substance. The term half-life denotes the time needed for the level to fall by half in the phase considered. One may read the clearance as the volume of plasma or blood freed of the substance per unit of time. A low value points to a low capacity for elimination. By bioavailability is commonly meant dose-corrected exposure relative to a reference, in per cent. Lower therefore signals little systemic uptake. Turning to `CC(C)[C@@H](NS(=O)(=O)c1ccc(-c2ccc(OCc3ccccc3C#N)cc2)cc1)C(=O)O`, the IC50 came out at 15000 nM in data set [1] and 4.6 nM at Collagenase 3. Further, the solubility in data set [4] was more than 100 µg/mL. Besides, the half-life in data set [5] was 6 h. For the same molecule, the clearance in data set [6] came to 1.07 mL/min/kg. This molecule displayed a bioavailability in [7] of 23%.
As to `CC(C)[C@@H](NS(=O)(=O)c1ccc(-c2ccc(OCc3cccc(C#N)c3)cc2)cc1)C(=O)O`, the IC50 in data set [1] came out at 800 nM; against Collagenase 3, 0.1 nM. Besides, the Papp in data set [8] was 0.8 ×10⁻⁶ cm/s. The molecule also displayed a solubility in data set [4] of 53 µg/mL (≈ 114 µM). The half-life in data set [5] is 7 h.
For `Cc1c(COc2ccc(-c3ccc(S(=O)(=O)N[C@@H](C(=O)O)C(C)C)cc3)cc2)oc2ccccc12`, the IC50 on Collagenase 3 turned out to be 4 nM; in data set [9], 3700 nM. Further, the inhibition in [3] amounted to 89%.
Take `CC(C)[C@@H](NS(=O)(=O)c1ccc(-c2ccc(OCc3cccc(C(F)(F)F)c3)cc2)cc1)C(=O)O`: the IC50 in [1] worked out at 310 nM; against Collagenase 3, 3.5 nM; in data set [9] it was 2380 nM. In addition, the inhibition in data set [3] stood at 87%.
